We go through 58 compounds from US20220306630A1, “AGONISTS OF ROR GAMMAt” (BRISTOL-MYERS SQUIBB COMPANY, priority 2019, published 2022).

The term EC50 denotes the concentration that produces a half-maximal response.

Structures are written as SMILES.

The test has as its target T1, RORgT (Homo sapiens, UniProt P51449).
T1 construct: Gal4 (fusion partner); expressed in transfected cells; host or cells: engineered Jurkat cells (Jurkat pEx/Gal/hRORγ CLBD/HYG pG5luc/blast)
T1 sequence (P51449 267-516): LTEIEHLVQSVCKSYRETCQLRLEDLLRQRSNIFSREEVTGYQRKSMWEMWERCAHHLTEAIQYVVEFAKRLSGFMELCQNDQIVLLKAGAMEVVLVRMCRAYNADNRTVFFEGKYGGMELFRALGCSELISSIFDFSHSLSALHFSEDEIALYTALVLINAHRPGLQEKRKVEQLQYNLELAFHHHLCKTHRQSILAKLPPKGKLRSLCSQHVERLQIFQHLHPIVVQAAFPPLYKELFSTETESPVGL
Put plainly: RORgT Gal4 Luciferase Reporter Gene Assay. Particulars: engineered Jurkat cells overexpressing RORgT (LBD or full length) with Gal4 Luc reporter; 18 hours at 37° C.; 40 μM to 0.67 nM; read-out: RORg_GAL4 EC50. It is filed as cell-based. An outline of the steps: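 Cells exposed to compound 18 hours at 37° C, then lysed for luciferase luminescence. Inhibition of constitutive activity expressed as percent reduction of signal window relative to a control compound.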
(In general: Reporter assays use an easily measured gene product as a stand-in for the process of interest.)
For `CC(C)(F)c1cc(F)cc(Oc2c(Cl)ccc(C(=O)NCc3ccc(S(N)(=O)=O)cc3)c2Cl)c1` [Example 337], the EC50 stood at 15 nM.

As to `COc1ccc(Oc2c(Cl)cc(NC(=O)Cc3cccc(C(N)=O)c3)cc2Cl)cc1C(C)C` [Example 5, 3-(2-((3,5-dichloro-4-(3-isopropyl-4-methoxyphenoxy)phenyl)amino)-2-oxoethyl)benzamide], the concentration for a half-maximal effect (EC50) stood at 437 nM.

As for `COc1ncc(Oc2c(Cl)cc(NC(=O)CC3CCN(S(=O)(=O)C(C)C)CC3)cc2Cl)cc1C(C)C` [Example 24, N-(3,5-dichloro-4-((5-isopropyl-6-methoxypyridin-3-yl)oxy)phenyl)-2-(1-(isopropylsulfonyl)piperidin-4-yl)acetamide], the EC50 was determined as 45 nM.

`CCS(=O)(=O)N1CCC(CC(=O)Nc2cc(Cl)c(Oc3cnc(OC)c(C(C)C)c3)c(Cl)c2)CC1` [Example 120]: the concentration for a half-maximal effect (EC50) amounted to 37 nM.

Turning to `CC1(c2cc(F)cc(Oc3c(Cl)ccc(C(=O)NCc4ccc(S(N)(=O)=O)cc4)c3Cl)c2)CC1` [Example 278], the EC50 was 1.7 nM.

For `COc1ccc(Oc2c(Cl)cc(NC(=O)NC(C)C)cc2Cl)cc1C(C)C` [Example 34, 1-(3,5-dichloro-4-(3-isopropyl-4-methoxyphenoxy)phenyl)-3-isopropylurea], the EC50 is 1060 nM.

On to `COc1ccc(Oc2c(Cl)cc(NC(=O)CCn3ccnc3)cc2Cl)cc1C(C)C` [Example 297], for which the half-maximal effective concentration (EC50) worked out at 44 nM.

Consider `COc1ccc(Oc2c(Cl)ccc(C(=O)N3CCC(c4ccc(Cl)cc4)CC3)c2Cl)cc1C(C)C` [Example 191], for which the concentration for a half-maximal effect (EC50) was determined as 128 nM.

As for `CC(C)c1cc(F)cc(Oc2c(Cl)cc(NC(=O)Cc3cccc(S(C)(=O)=O)c3)cc2Cl)c1` [Example 328], the EC50 was found to be 19 nM.

As to `COc1ccc(Oc2c(Cl)cc(NC(=O)Cc3ccc(S(C)(=O)=O)cc3)cc2Cl)cc1C(C)(C)F` [Example 336], the EC50 was found to be 14 nM.

Regarding `COc1ccc(Oc2c(Cl)ccc(C(=O)NCCCCO)c2Cl)cc1C(C)C` [Example 81], the EC50 was 1310 nM.

Take `CC1(c2cc(F)cc(Oc3c(Cl)cc(NC(=O)Cc4ccc(S(C)(=O)=O)cc4)cc3Cl)c2)CC1` [Example 274]: the EC50 is 3.9 nM.

In the case of `COc1ccc(Oc2c(Cl)cc(NC(=O)CN3CCN(S(N)(=O)=O)CC3)cc2Cl)cc1C(C)C` [Example 48, N-(3,5-dichloro-4-(3-isopropyl-4-methoxyphenoxy)phenyl)-2-(4-sulfamoylpiperazin-1-yl)acetamide], the concentration for a half-maximal effect (EC50) came out at 105 nM.

On to `CCS(=O)(=O)N1CCN(CC(=O)NCc2ccc(Cl)c(Oc3ccc(OC)c(C(C)C)c3)c2Cl)CC1` [Example 185], for which the EC50 worked out at 28 nM.

As to `COc1ccc(Oc2c(Cl)cc(NC(=O)Cc3ccc(Cl)nc3)cc2Cl)cc1C(C)C` [Example 343], the EC50 stood at 67 nM.

With `COc1ncc(Oc2c(Cl)ccc(CNC(=O)c3ccc(S(N)(=O)=O)cc3)c2Cl)cc1C(C)C` [Example 146], the EC50 came out at 28 nM.

As for `COc1ccc(Oc2c(Cl)ccc(C(=O)NCCc3ccc(S(N)(=O)=O)cc3)c2Cl)cc1C(C)C` [Example 219], the EC50 was 1500 nM.

Regarding `CC(C)c1cc(F)cc(Oc2c(Cl)cc(NC(=O)Cc3ccc(S(C)(=O)=O)cc3)cc2Cl)c1` [Example 329], the EC50 came to 32 nM.

Turning to `COc1ccc(Oc2c(Cl)cc(NC(=O)N3CCOCC3)cc2Cl)cc1C(C)C` [Example 236], the EC50 came to 597 nM.

Turning to `CC(C)c1cc(F)cc(Oc2c(Cl)ccc(C(=O)N3CCC4(CC3)CN(S(C)(=O)=O)C4)c2Cl)c1` [Example 112], the EC50 was found to be 14 nM.

As to `COC(=O)CNC(=O)c1ccc(Cl)c(Oc2ccc(OC)c(C(C)C)c2)c1Cl` [Example 77], the EC50 stood at 953 nM.

For the compound `COc1ccc(Oc2c(Cl)ccc(C(=O)NCC3CCS(=O)(=O)CC3)c2Cl)cc1C(C)C` [Example 100], the half-maximal effective concentration (EC50) came to 117 nM.

In the case of `COc1ncc(Oc2c(Cl)ccc(C(=O)NCc3ccc(S(C)(=O)=O)cc3)c2Cl)cc1C(C)(C)F` [Example 152], the EC50 stood at 2.5 nM.

For `COc1ncc(Oc2c(Cl)cc(NC(=O)CC3CCN(S(=O)(=O)C4CC4)CC3)cc2Cl)cc1C(C)C` [Example 119], the EC50 is 11 nM.

In the case of `CC(C)c1cc(F)cc(Oc2c(Cl)ccc(C(=O)NC(C)c3ccc(S(C)(=O)=O)cc3)c2Cl)c1` (stereo not shown) [Example 142], the EC50 worked out at 71 nM.

For `COc1ccc(Oc2c(Cl)ccc(N(C)C(=O)C(C)c3ccc(S(C)(=O)=O)cc3)c2Cl)cc1C(C)C` (stereo not shown) [Example 66], the EC50 was 268 nM.

For `COc1ccc(Oc2c(Cl)ccc(C(=O)NCCO)c2Cl)cc1C(C)C` [Example 208], the EC50 stood at 508 nM.

For `CCS(=O)(=O)N[C@H]1CCN(CC(=O)Nc2cc(Cl)c(Oc3ccc(OC)c(C(C)C)c3)c(Cl)c2)C1` [Example 164], the EC50 is 80 nM.

Consider `COc1ccc(Oc2c(Cl)ccc(C(=O)NCCN3CCCC3=O)c2Cl)cc1C(C)C` [Example 83], for which the 50% effective concentration (EC50) was 1170 nM.

Take `COc1ncc(Oc2c(Cl)ccc(C(=O)NC(C)c3ccc(S(C)(=O)=O)cc3)c2Cl)cc1C(C)C` (stereo not shown) [Example 135]: the EC50 was 11 nM.

For `COc1ccc(Oc2c(Cl)cc(C(=O)NCc3cnc(C)cn3)cc2Cl)cc1C(C)C` [Example 155], the EC50 stood at 4750 nM.

With `CCS(=O)(=O)N[C@H]1CCCN(CC(=O)Nc2cc(Cl)c(Oc3ccc(OC)c(C(C)C)c3)c(Cl)c2)C1` [Example 172], the EC50 was 49 nM.

As for `COc1ccc(Oc2c(Cl)cc(NC(=O)Cc3cccnc3Cl)cc2Cl)cc1C(C)C` [Example 345], the EC50 was 124 nM.

For `C=C(C)c1cc(Oc2c(Cl)cc(NC(=O)CC3CCN(S(C)(=O)=O)CC3)cc2Cl)ccc1Cl` [Example 269], the EC50 stood at 185 nM.

In the case of `COc1ccc(Oc2c(Cl)ccc(C(=O)NC3CCN(Cc4ccccc4)C3)c2Cl)cc1C(C)C` (stereo not shown) [Example 193], the EC50 is 866 nM.

On to `CC(C)(F)c1cc(F)cc(Oc2c(Cl)cc(NC(=O)Cc3cccc(S(C)(=O)=O)c3)cc2Cl)c1` [Example 53, N-(3,5-dichloro-4-(3-fluoro-5-(2-fluoropropan-2-yl)phenoxy)phenyl)-2-(3-(methylsulfonyl)phenyl)acetamide], for which the EC50 amounted to 40 nM.

`COc1ccc(Oc2c(Cl)cc(NC(=O)Cc3cn[nH]c3)cc2Cl)cc1C(C)C` [Example 7]: the EC50 is 173 nM.

Consider `COc1ccc(Oc2c(Cl)ccc(C(=O)N3CCCC3)c2Cl)cc1C(C)C` [Example 210], for which the EC50 worked out at 105 nM.

On to `COc1ccc(Oc2c(Cl)cc(NC(=O)OCCS(C)(=O)=O)cc2Cl)cc1C(C)C` [Example 1, 2-(methylsulfonyl)ethyl (3,5-dichloro-4-(3-isopropyl-4-methoxyphenoxy)phenyl)carbamate], for which the EC50 stood at 829 nM.

For `COc1ncc(Oc2c(Cl)cc(NC(=O)CN3CC(NS(C)(=O)=O)C3)cc2Cl)cc1C(C)C` [Example 267], the EC50 is 373 nM.

For the compound `COc1ccc(Oc2c(Cl)cc(NC(=O)Cc3ccc(S(C)(=O)=O)nc3)cc2Cl)cc1C(C)C` [Example 3, N-(3,5-dichloro-4-(3-isopropyl-4-methoxyphenoxy)phenyl)-2-(6-(methylsulfonyl) Pyridin-3-yl)acetamide], the EC50 was 54 nM.

Regarding `COc1ccc(Oc2c(Cl)ccc(C(=O)NCC3CCCC(O)C3)c2Cl)cc1C(C)C` (stereo not shown) [Example 226], the 50% effective concentration (EC50) turned out to be 286 nM.

On to `COc1ccc(Oc2c(Cl)cc(NC(=O)c3ccccc3)cc2Cl)cc1C(C)C` [Example 299], for which the EC50 came out at 20000 nM.

Take `COc1ccc(Oc2c(Cl)ccc(C(=O)NCC3CCN(S(=O)(=O)C(C)C)CC3)c2Cl)cc1C(C)C` [Example 93]: the EC50 was found to be 167 nM.

In the case of `CCS(=O)(=O)N1CCC(C(=O)NCc2ccc(Cl)c(Oc3ccc(OC)c(C(C)C)c3)c2Cl)CC1` [Example 212], the EC50 came out at 11 nM.

With `COc1ccc(Oc2c(Cl)cc(NC(=O)OCCn3ccnc3)cc2Cl)cc1C(C)C` [Example 235], the EC50 was 1270 nM.

With `CC(C)c1cc(F)cc(Oc2c(Cl)ccc(NC(=O)Cc3ccc(S(C)(=O)=O)cc3)c2Cl)c1` [Example 75], the EC50 amounted to 33 nM.

For `CC(c1cc(F)cc(Oc2c(Cl)ccc(C(=O)NCc3ccc(S(N)(=O)=O)cc3)c2Cl)c1)C(F)(F)F` (stereo not shown) [Example 356], the EC50 stood at 17 nM.

With `COc1ccc(Oc2c(Cl)ccc(CNC(=O)CN3CCNCC3)c2Cl)cc1C(C)C` [Example 89], the EC50 turned out to be 4080 nM.

Take `CC(C)c1cc(F)cc(Oc2c(Cl)cc(NC(=O)CC3CCN(S(C)(=O)=O)CC3)cc2Cl)c1` [Example 258]: the EC50 worked out at 19 nM.

`COc1ccc(Oc2c(Cl)ccc(CNC(=O)c3ccc(S(N)(=O)=O)cc3)c2Cl)cc1C(C)C` [Example 60]: the EC50 worked out at 139 nM.

`CC(C)c1cc(F)cc(Oc2c(Cl)cc(NC(=O)CC3CCN(S(N)(=O)=O)CC3)cc2Cl)c1` [Example 270]: the EC50 amounted to 22 nM.

Take `COc1ncc(Oc2c(Cl)ccc(C(=O)NCc3ccc(S(N)(=O)=O)cc3)c2Cl)cc1C(C)C` [Example 117]: the EC50 is 6 nM.

For `CC(C)c1cc(F)cc(Oc2c(Cl)ccc(C(=O)N3CCC4(CC3)CN(S(=O)(=O)C3CC3)C4)c2Cl)c1` [Example 125], the EC50 came to 548 nM.

`COc1ccc(Oc2c(Cl)cc(NC(=O)c3c[nH]c4ncncc34)cc2Cl)cc1C(C)C` [Example 347]: the EC50 turned out to be 1820 nM.

As for `COc1ccc(Oc2c(Cl)cc(NC(=O)C(O)c3cccnc3)cc2Cl)cc1C(C)C` (stereo not shown) [Example 247], the concentration for a half-maximal effect (EC50) turned out to be 114 nM.

`COc1ccc(Oc2c(Cl)ccc(C(=O)Nc3ccccc3CC#N)c2Cl)cc1C(C)C` [Example 215]: the half-maximal effective concentration (EC50) was found to be 37 nM.

On to `COc1ccc(Oc2c(Cl)cc(NC(=O)Cc3cnc[nH]3)cc2Cl)cc1C(C)C` [Example 250], for which the EC50 came out at 500 nM.
